Measurements as given in article PMC12457078, “Inhibition of soluble epoxide hydrolase in endotoxin induced pig lung injury” (Frontiers in Pharmacology, 2025).
Several values for one entry are separate records, joined by “and”; a condition that tells them apart may be missing. Identical values can stand only once.

System: endotoxin-induced lung injury
Test: porcine model of LPS-induced acute lung injury: haemodynamics, ventilation/mechanics, blood gases, P/F, chemistry, temperature, survival
Type: in vivo, pig
Set-up: AF baseline / AF end / Ven. sat end: unit not given here
Description: The animals were bred for purpose at the Forslunda Agricultural School in Umeå, Sweden. The pigs were pairwise kept in 8 m^2 pens before start of experiments and were fed twice daily with a commercially available pig diet without antimicrobials, and with free access to water. Photoperiods were 12:12 h light:dark. Room temperature in their stall was 20 °C ± 1 °C.
After overnight fasting, but with free access to water and hay, animals were pre-medicated with ketamine (Ketaminol vet® 100 mg/mL; Intervet International B.V, Boxmeer, Netherlands), xylazine (Rompun® vet 20 mg/mL; Bayer Animal Health, Copenhagen, Denmark) and atropine (Atropin Mylan 0.5 mg/mL; Mylan AB, Stockholm, Sweden) by intramuscular injection before an auricular vein was cannulated. Anesthesia was induced with ketamine and midazolam (Midazolam Hameln 5 mg/mL, Hameln Pharmaceuticals, Hameln, Germany) and maintained with ketamine, midazolam, xylazine and fentanyl (Fentanyl 0.05 mg/mL, B. Braun Medical AB, Danderyd, Sweden). The animals were orotracheally intubated and ventilated with tidal volume 8–9 mL/kg, PEEP 8 cmH2O, and a respiratory rate set to achieve an end-tidal carbon dioxide of 5–5.5 kPa.
One animal served as a pharmacokinetic pilot, with arterial and venous catheters placed in a cut-down in the neck. The remaining 21 animals were used for the randomized study (Figure 1). After intubation and start of mechanical ventilation, a second auricular vein cannula was placed and infusion of either AEPU or placebo according to randomization was started. After 2 h of infusion of AEPU or placebo, an infusion of LPS was started. A bolus of 0.1 mg/kg was administered during 30 min after which the infusion rate was adjusted to 0.01 mg/kg/h. During the time between start of AEPU or placebo and LPS infusion, neck dissection was performed, exposing the v jugularis externa and carotid artery. A pulmonary artery introducer and an arterial cannula were placed in vein and artery respectively, and a pulmonary artery catheter introduced through the introducer and the tip placed in the correct position in the pulmonary artery placement guided by continuous invasive pressure monitoring or, when difficult, assisted by fluoroscopy. All surgical procedures were performed under sterile conditions.
AEPU was synthesized according to Kim et al. ([Kim et al., 2007]), delivered in 60 mg vials and dissolved in 30 mL pure ethanol as a co-solvent, of which either 20 mL was added to 980 mL of sodium chloride 9 mg/mL or 8 mL–392 mL sodium chloride, creating a solution of 0.04 mg/mL AEPU and 2% ethanol. The placebo infusion was prepared by adding either 20 mL of pure ethanol to 980 mL of sodium chloride 9 mg/mL or 8 mL of pure ethanol to 392 mL sodium chloride, creating a 2% ethanol solution. Each animal received an infusion of either 0.1 mg/kg/h AEPU or the corresponding volume of placebo solution.
A total of 200 mg of prefabricated lipopolysaccharides (LPS, Escherichia coli serotype 0,111:B4, Sigma-Aldrich (Product no L4130), St. Louis, MO, United States of America) was dissolved in 40 mL of sterile water, carefully mixed and filtered, creating a solution of 5 mg/mL. This preparation was stored frozen (−20 °C) in 1 mL partitions. For each animal, 2 mL of the thawed solution was mixed and diluted in 18 mL of sodium chloride, finally creating a 0.5 mg/mL LPS solution for infusion.
All animals were monitored with pulse oximetry, heart rate, ECG, systemic arterial blood pressure (ABP), pulmonary arterial pressure (PAP), central venous pressure (CVP) temperature, tidal volumes, respiratory rate and end tidal carbon dioxide. At baseline, and at 3 h, 6 h and at the end of the experiment, pulmonary capillary wedge pressure (PCWP) was measured together with arterial and venous blood gas analyses, as well as cardiac output calculations. […]

[1] = individual animals, 3 h, listed as sEH-i 950
[2] = individual animals, 6 h, listed as sEH-i 950
[3] = individual animals, end, listed as sEH-i 950
[4] = last available measurement, AEPU group

CCOCCOCCOCCCCCNC(=O)NC12CC3CC(CC(C3)C1)C2 [Compound 950]
PaO2 3 h [1]: 22.1 kPa and 20.1 kPa and 17 kPa and 22.7 kPa and 19.3 kPa and 16.7 kPa and 9 kPa and 8.1 kPa and 7.3 kPa and 14.7 kPa | SBP 3 h [1]: 124 mmHg and 122 mmHg and 103 mmHg and 102 mmHg and 110 mmHg and 101 mmHg and 162 mmHg and 123 mmHg and 78 mmHg and 116 mmHg | SPAP 3 h [1]: 82 mmHg and 46 mmHg and 45 mmHg and 53 mmHg and 66 mmHg and 58 mmHg | Ven. sat 3 h [1]: 69 and 79 and 74 and 62 and 58 and 49 and 34 | CO 6 h [2]: 3.2 L/min and 3.3 L/min and 3.1 L/min and 1.7 L/min and 2.4 L/min | CVP 6 h [2]: 14 mmHg and 16 mmHg and 22 mmHg and 15 mmHg and 26 mmHg and 25 mmHg | HR 6 h [2]: 170 and 173 and 175 and 138 and 120 and 226 and 116 and 162 | MAP 6 h [2]: 82 mmHg and 60 mmHg and 94 mmHg and 91 mmHg and 66 mmHg and 55 mmHg | MPAP 6 h [2]: 35 mmHg and 44 mmHg and 42 mmHg and 24 mmHg and 49 mmHg and 41 mmHg and 43 mmHg | PCWP 6 h [2]: 19 mmHg and 17 mmHg and 18 mmHg and 21 mmHg | PaCO2 6 h [2]: 5.1 kPa and 5.9 kPa and 6.2 kPa and 5.3 kPa and 5.5 kPa and 4.4 kPa and 6.3 kPa and 8 kPa and 9.4 kPa | PaO2 6 h [2]: 19.6 kPa and 12.3 kPa and 11.8 kPa and 18.6 kPa and 18.5 kPa and 14.7 kPa and 8.7 kPa and 9.4 kPa and 6.8 kPa and 7.9 kPa | SBP 6 h [2]: 104 mmHg and 106 mmHg and 119 mmHg and 88 mmHg and 110 mmHg and 100 mmHg and 95 mmHg | SPAP 6 h [2]: 42 mmHg and 47 mmHg and 48 mmHg and 36 mmHg and 57 mmHg and 44 mmHg and 52 mmHg and 53 mmHg | Ven. sat 6 h [2]: 57 and 59 and 45 and 73 and 68 and 44 and 46 and 7 and 10 | MPAP (vid max SPAP) (individual animals, at max SPAP, listed as sEH-i 950): 60 mmHg and 52 mmHg and 62 mmHg and 57 mmHg and 84 mmHg and 66 mmHg and 47 mmHg | CO end [3]: 3.9 L/min and 2.8 L/min and 3.6 L/min and 5.2 L/min and 0 L/min and 1.4 L/min | CVP end [3]: 17 mmHg and 15 mmHg and 13 mmHg and 20 mmHg | HR end [3]: 163 and 147 and 150 and 130 and 165 and 160 (0) and 135 | MAP end [3]: 55 mmHg and 56 mmHg and 105 mmHg and 64 mmHg and 67 mmHg and 42 mmHg and 43 mmHg | MPAP end [3]: 30 mmHg and 50 mmHg and 33 mmHg and 24 mmHg and 40 mmHg and 43 mmHg and 48 mmHg | PCWP end [3]: 17 mmHg and 22 mmHg and 16 mmHg and 15 mmHg and 25 mmHg | PaCO2 end [3]: 5.3 kPa and 6.1 kPa and 4.8 kPa and 4.4 kPa and 7.3 kPa and 6.4 kPa | PaO2 end [3]: 19.9 kPa and 13.4 kPa and 12 kPa and 19.5 kPa and 12.2 kPa and 4.4 kPa and 8.7 kPa | SBP end [3]: 102 mmHg and 103 mmHg and 116 mmHg and 97 mmHg and 92 mmHg and 66 mmHg and 70 mmHg | SPAP end [3]: 38 mmHg and 57 mmHg and 43 mmHg and 29 mmHg and 47 mmHg and 49 mmHg and 54 mmHg | Ven. sat end [3]: 69 and 54 and 58 and 56 and 70 and 19 | SPAP max (individual animals, maximum, listed as sEH-i 950): 73 mmHg and 71 mmHg and 91 mmHg and 70 mmHg and 72 mmHg and 84 mmHg and 80 mmHg and 75 mmHg | Bilirubin [4]: 11.1 (8.6–18.8) μmol/L | CVP [4]: 16 (15–17) mmHg | Compliance [4]: 7.9 (7.3–9.7) ml/cmH2O | Creatinine [4]: 133 (102–152) μmol/L | Hemoglobin [4]: 116 (107–128) g/L | MAP [4]: 66 (55–97) mmHg | MPAP [4]: 46 (35–50) mmHg | P/F [4]: 22 (11–42) kPa | PCWP [4]: 18 (16–21) mmHg | PIP [4]: 33 (29–37) cmH20 | PVR [4]: 643 (390–1057) dynes*sec/cm^5 | PaCO2 [4]: 5.8 (4.9–7.1) kPa | SVR [4]: 1314 (1089–2375) dynes*sec/cm^5 | SvO2 [4]: 55 (25–66) % | Temperature [4]: 38.5 (38.0–40.1) °C | pH [4]: 7.16 (7.07–7.26) | Mortalitet: Tidpunkt (time of death or termination, individual animals, listed as sEH-i 950): 6 h and 9 h and 8 h
